According to patent US20080058211A1, “Method and Composition for the Modulation of Toxin Resistance in Plant Cells” (BOARD OF REGENTS, THE UNIVERSITY OF TEXAS SYSTEM, priority 2006, published 2008):

What was measured:
[Ca^2+]cyt = dextran-conjugated calcium green as reporter; cited from earlier work
[1] = system: root hairs of Arabidopsis thaliana; conditions: cited from earlier work
Arabidopsis roots = conditions: concentrations that inhibited gravitropic growth; cited from earlier work
LOX2, ACS6, PAL1 = conditions: cited from earlier work
Arabidopsis leaves = conditions: applied into intercellular spaces of leaves; cited from earlier work
root hairs = conditions: cited from earlier work
[2] = system: [Ca^2+]cyt in excised roots; conditions: cited from earlier work
roots = conditions: in vivo; cited from earlier work
maize roots = conditions: concentrations that inhibited gravitropic growth; cited from earlier work
[3] = system: ATMEKK1, ATMPK3, ATPK19, ERF2, ERF3, ERF4 and ACS6 genes; conditions: application of 500 μM; cited from earlier work
Arabidopsis pollen [4] = conditions: cited from earlier work
[5] = system: nitric oxide levels in elongating Arabidopsis pollen tubes; experiment: nitric oxide in elongating pollen tubes, DAF-2D fluorescence; format: cell-based, Arabidopsis thaliana; conditions: 125 μM
Protocol: Increased extracellular ATPγS increases nitric oxide production in elongating pollen tubes. In addition to using agonists and antagonists to indirectly study the relationship of eATPγS and nitric oxide, direct measurements of increases in nitric oxide after application of ATPγS and AMPαS were examined. Pollen grains have a high level of auto-fluorescence and the nitric oxide levels in elongating Arabidopsis pollen tubes were determined using DAF-2D, a fluorescent marker for the presence of nitric oxide that was dissolved in DMSO. Elongating pollen tubes were treated with DAF-2D alone or with ATPγS or AMPαS.
Measurements of NO in growing pollen tubes treated with ATPγS or AMPαS. Pollen was germinated as described for the pollen elongation measurements. After 1-2 hours when pollen tubes were clearly visible, 90 μL of PGM containing 5 μM 4,5-diaminofluorescein diacetate (DAF-2D, Molecular Probes) with or without ATPγS or AMPαS was added. […] Using Image J, the average fluorescence for the pollen tubes on each slide and each time point were determined. Since background fluorescence for each slide varied, three areas where no pollen tubes were present were averaged and subtracted from the pollen tube averages for each slide. Pollen tubes with and without nucleotides were compared to each other at similar time points to determine if there was a difference in fluorescence.

[6] = system: Medicago truncatula pollen; experiment: in vitro pollen germination (Medicago); format: cell-based
Protocol: To determine if the affects of ATPγS on pollen germination was specific to Arabidopsis or a more generalized phenomenon, Medicago truncatula was also examined.
Strains and Growth Conditions. For the experiments related to the nitric oxide-ATP signaling relationship, all Arabidopsis thaliana plants were ecotype Wassilewskija (WS), and Medicago truncatula plants were strain A17. All of the plants were grown in Metro-Mix 200 soil at 24° C. with constant light. In vitro Pollen Germination. Arabidopsis flowers in stage 12-14 (Smyth et al., 1990) or Medicago truncatula flowers in stage F3 (Firnhaber et al., 2005) were collected and vortexed for 1 min in pollen germination media (PGM) (0.01% boric acid, 1 mM MgSO4, 1 mM CaCl2, 1 mM Ca(NO3)2, 5 mM HEPES, 18% Sucrose pH 7.0). The supernatant containing the pollen was collected by pipet, and up to three rounds of vortexing of the same pollen could be pooled together. The pollen suspended in PGM was then added in 10-12 μL drops to 400 μL PGM+1% agar that had been spread as a thin film across a microscope slide. […] The digital images were scored for the percent of pollen germinated using the AlphaEase software from Alpha Innotech. Pollen with tubes that were shorter than the diameter of the pollen grain were not counted as germinated or non-germinated. […]

Arabidopsis pollen [7] = experiment: in vitro pollen germination (Arabidopsis); format: cell-based, Arabidopsis thaliana
Protocol: Effects of Extracellular ATPγS and AMPαS on Pollen Germination. Arabidopsis pollen was germinated in pollen germination media (PGM) containing from about zero to about 400 μM ATPγS or AMPαS. […] The method of collection included vortexing flowers in PGM creating a homogenous suspension of pollen from tens to hundreds of flowers. This method caused the release of a small amount of ATP, 2-5 μM into the PGM (data not shown).
The nitric oxide signaling pathway mediates the inhibition of Arabidopsis pollen germination by ATPγS. To examine the downstream effectors involved in the inhibition of Arabidopsis pollen germination by ATPγS, different agonists and antagonists of the known nitric oxide signaling pathway were examined. […] Some of the nitric oxide signaling pathway agonists are water soluble while others are DMSO soluble.
Strains and Growth Conditions. For the experiments related to the nitric oxide-ATP signaling relationship, all Arabidopsis thaliana plants were ecotype Wassilewskija (WS), and Medicago truncatula plants were strain A17. All of the plants were grown in Metro-Mix 200 soil at 24° C. with constant light. In vitro Pollen Germination. Arabidopsis flowers in stage 12-14 (Smyth et al., 1990) or Medicago truncatula flowers in stage F3 (Firnhaber et al., 2005) were collected and vortexed for 1 min in pollen germination media (PGM) (0.01% boric acid, 1 mM MgSO4, 1 mM CaCl2, 1 mM Ca(NO3)2, 5 mM HEPES, 18% Sucrose pH 7.0). The supernatant containing the pollen was collected by pipet, and up to three rounds of vortexing of the same pollen could be pooled together. The pollen suspended in PGM was then added in 10-12 μL drops to 400 μL PGM+1% agar that had been spread as a thin film across a microscope slide. The slides and pollen were then placed into humidity chambers, petri dishes with water saturated kimwipes, and allowed to germinate at 26° C. overnight. Pictures of the germinated pollen were taken with a digital camera attached to a brightfield microscope at 40×. The digital images were scored for the percent of pollen germinated using the AlphaEase software from Alpha Innotech. Pollen with tubes that were shorter than the diameter of the pollen grain were not counted as germinated or non-germinated. The chemicals: ATPγS, AMPαS, N2, 2-O-dibutyrylguanosine 3′:5′-cyclic monophospohate (Dib cGMP), Sildenafil citrate (Viagra™, Pfizer), and 2-(N,N-Diethylamino)-diazenolate 2-oxide (NONOate) were added to the pollen/PGM suspension prior to adding the drops to the PGM+1% agar. The chemicals 1H-[1,2,4]Oxadiazolo[4,3,-a]quinoxalin-1-one (ODQ), N-[4-[1-(3-Aminopropyl)-2-hydroxy-2-nitrosohydrazino]butyl]-1,3-propanediamine (SNAP), and 3-isobutyl-1-methylxanthine (IBMX) were diluted in DMSO and added to the pollen/PGM suspension to a final concentration of DMSO of 0.1%.
For successful pollen germination it was critical for the plants to be healthy and growing in slightly dry soil. To achieve this, the plants were briefly watered 1-2 days before the experiment. As Johnson-Brousseau and McCormick note in their paper (Johnson-Brousseau and McCormick 2004), a solid base is necessary for best in vitro germination of Arabidopsis pollen. The pollen would not germinate in liquid PGM if not overlaid on a solid PGM+1% agar base, and the vortexing and deposition of the pollen/PGM suspension needed to take place in less than 30 minutes or germination rates dropped considerably.

[8] = system: [Ca^2+]cyt in Arabidopsis seedlings; conditions: Arabidopsis seedlings (Jeter et al., 2004); cited from earlier work
Δ[Ca^2+]cyt = conditions: co-application with OGA; cited from earlier work
Arabidopsis pollen tubes = experiment: pollen tube elongation; format: cell-based, Arabidopsis thaliana; conditions: about 0 to about 250 μM added after tubes had begun to grow
Protocol: Arabidopsis pollen tube elongation is inhibited by ATPγS. As vesicles fuse to deliver membranes to the tip of elongating pollen tubes, ATP is likely to be released. So ATPγS and AMPαS were investigated for their ability to affect pollen tube elongation. After pollen tubes had begun to grow, from about 0 to about 250 μM ATPγS or AMPαS were added and the subsequent growth rate was determined.
Blocking the nitric oxide signaling pathway reverses the inhibition of Arabidopsis elongation by ATPγS. The inhibition of Arabidopsis pollen tube elongation was also mediated via the NO signaling pathway. Pollen tube growth rates were measured in 0.5% DMSO with and without 100 μM ATPγS.
Measurements of pollen tube elongation. Pollen was germinated as described above except 10 μL drops of pollen/PGM suspension were added to 60 μL of PGM+1% agar that had been deposited into a concavity slide. The pollen was allowed to germinate for 1-2 h, so that pollen tubes were clearly visible. Then 90 μL of PGM or PGM containing ATPγS, AMPαS, DMSO or ODQ was added and a photo was taken using a brightfield microscope at 40×. The coordinates of each photo were noted, so that the exact pollen tubes could be photographed 50-60 minutes later. Using Image J, the pollen tube lengths for individual pollen tubes were measured and a growth rate of μm/min was determined.

Nc1ncnc2c1ncn2[C@@H]1O[C@H](COP(=O)(O)OP(=O)(O)OP(=O)(O)O)[C@@H](O)[C@H]1O [ATP]
change in [Ca2+]cyt ([Ca^2+]cyt): no change | induction of membrane depolarization ([1]; applied nucleotide or phosphate): induced large depolarizations | EC50 ([1]; dose-response studies, read-out: half-maximal depolarization): ~400 µM | auxin transport (Arabidopsis roots): inhibited auxin transport | message abundance for PAL1 (LOX2, ACS6, PAL1): increased | expression of LOX2 and ACS6 (LOX2, ACS6, PAL1; micromolar concentrations that induced superoxide production): up-regulated | concentration sufficient to induce significant superoxide production (Arabidopsis leaves): 500 nM | increase in root hair growth (root hairs): not | increase in [Ca2+]cyt ([2]; 300 nM ATP, excised roots, 10 mM CaCl2, in less than about 10 seconds): 2 fold | [Ca2+]cyt after treatment ([2]; 1 μM ATP, from ca. 100 nM): over 400 nM | concentration that could inhibit the straight growth of roots (roots): 3 mM | auxin transport (maize roots): inhibited auxin transport | abundance of mRNAs (MAP kinases, ERF2, ERF3, ERF4, ACS6) [3]: induced an increased abundance | concentration shown to affect pollen germination (Arabidopsis pollen [4]; Steinenbrunner et al., 2003): 1 to 2 mM

Nc1ncnc2c1ncn2[C@@H]1O[C@H](COP(=O)(O)OP(=O)(O)OP(O)(O)=S)[C@@H](O)[C@H]1O [ATPγS]
DAF-2D fluorescence [5]: significantly increased | concentration from which pollen germination rates decrease [6]: 200 µM | inhibition of pollen germination (Arabidopsis pollen [7]; 50 μM, 0.1% DMSO): inhibits | inhibition of pollen germination (Arabidopsis pollen [7]; 50 μM, series with water-soluble agonists): not inhibitory | inhibition of pollen germination (Arabidopsis pollen [7]; 100 μM, 0.1% DMSO): does not inhibit | inhibition of pollen germination (Arabidopsis pollen [7]; 100 μM, series with water-soluble agonists): inhibitory | concentration from which the pollen germination rate significantly decreased (Arabidopsis pollen [7]; PGM with about zero to about 400 μM): about 100 μM | concentrations required for the responses of pollen (Arabidopsis pollen [7]; pollen germination and growth): 100 to 200 µM | concentrations needed to induce increases in [Ca2+]cyt [8]: 100 to 200 µM | effect on Δ[Ca2+]cyt together with OGA (Δ[Ca^2+]cyt): mutually enhanced | concentration that could inhibit the straight growth of roots (roots): 0.3 mM | concentration that significantly inhibited pollen tube elongation (Arabidopsis pollen tubes): more than 150 μM | pollen germination (Arabidopsis pollen [4]; wild-type pollen, μM levels): inhibits pollen germination
